Patent US20250101003A1, “SPIROCYCLIC CAV2.3 ANTAGONISTS” (LARIO THERAPEUTICS LIMITED, priority 2021, published 2025)

Biological target: Cav2.3 (Homo sapiens, UniProt Q15878)
Assay: Human Cav2.3 channel calcium-influx assay
Assay type: cell-based
Conditions: HEK-293 T-Rex/Kir2.1/Cav2.3e-β4-α2δ1 cells, Fluo8 fluorescence, without pluronic acid; read-out: Cav2.3 (pIC50) (converted)
Experimental: HEK-293 T-Rex cells were transfected with pcDNA3.1-Kir2.1 to generate a stable cell line. After antibiotic selection, the obtained stable pools were analysed using FLIPR^TETRA (membrane potential assay), and a limiting dilution was performed and a HEK-293 T-Rex/Kir2.1 clone was selected. The clone was transfected with pcDNA3.1-Cav2.3e and pBud-Cav-β4-α2δ1 to generate a stable cell line where the Cav2.3e expression is inducible. After antibiotic selection, functional clone pool analysis and two successive limiting dilutions, the final clone underwent a qPCR analysis and a biophysical and pharmacological validation using patch-clamp.
A compound plate, containing 10 test compounds in eight-points dose response with n=4, was prepared. Test compounds dose response curves were prepared in automated fashion in 100% DMSO at CyBio Felix and starting from a stock solution in 100% DMSO; a defined volume was serially moved into destination wells pre-filled with the desired DMSO volume; stock solution concentration volumes were dependent on the final compounds concentrations to be tested and the final DMSO content used in the assay. For the assay test compounds dose response curves ranged from 30 μM and half log dilution with 0.3% final DMSO. In order to obtain the 8-points dose response curve all the concentrations were created by starting from a 10 mM DMSO stock solution and then moving 9.5 μL into a destination well pre-filled with 20.5 μL of 100% DMSO and repeating this step seven times. This initial step was done into 96 MTP plates, 10 compounds/plate. One 384 MTP was then reformatted to contain all the 10 compounds at 8 concentrations, quadruplicate data points. This so obtained 384 MTP compound plate served as source plate in a “mother to child” process with a CyBi®-Well dispenser in which 0.7 μL of compounds were moved into a destination plate pre-filled with 57.6 μL of Tyrode's buffer 0 mM K+, thus obtaining 4× concentrated compounds solution. In columns 1-2 and 23-24 the control wells were added. Both “source” compound plate and “destination” compound plate were barcoded and a relationship between the two plates was thus generated.
The day before the experiment, cells were detached by gentle wash with DPBS, followed by 5 min incubation at 37° C. with Trypsin solution. Detached cells were diluted with OptiMEM+Doxycycline at 0.2 μg/mL, counted and plated in Poly-D-Lysine coated black/clear bottom (15.000 c/well in 20 μl/well) by the use of a MATRIX WellMate dispenser. Plates were placed into a humidified incubator at 37° C. with 5% CO2 until the experimental day. 24 h after seeding 10 μL/well of 1.5× Fluo8 NW dye solution prepared in Tyrode's buffer 0 mM K^+ were added on top of the seeding medium. Cell plates were incubated for 40-60 min at RT in the dark. We then Injected off-line 10 μL/well of test compounds and controls 4× concentrated in Tyrode's Buffer 0 mM K+ with the CyBi®-Well instrument. Cell plates were incubated 3 minutes at RT. Finally, we injected 20 μL/well of 3× concentrated activator solution (K20-Na130-Ca2 buffer: 20 mM KCl, 130 mM NaCl, 2 mM CaCl2, 10 mM HEPES, 10 mM Glucose, final concentrations, prepared starting from “KO-Na150-Ca2” and “K150-Na0-Ca2” buffers) at FDSS7000EX instrument and read emitted fluorescence for 130 seconds.
Data analysis was performed with Genedata Screener® software and reported compounds activity as % effect in relation to the normalization standards. The Kinetic Response Value (KRV) is calculated as follows:
KRV=Maximal fluorescence recorded from second 5 to second 130 minus baseline fluorescence, computed as average from second 1 to second 2, of the kinetic trace. The KRV was normalized versus Neutral Controls and Inhibitor Controls in order to obtain the Activity[%] for each well. […] Therefore, the compound activity values were scaled (based on the two references) to a common range (two-point normalization). […]

Sequence of Cav2.3 (Q15878 1-747 limits assumed): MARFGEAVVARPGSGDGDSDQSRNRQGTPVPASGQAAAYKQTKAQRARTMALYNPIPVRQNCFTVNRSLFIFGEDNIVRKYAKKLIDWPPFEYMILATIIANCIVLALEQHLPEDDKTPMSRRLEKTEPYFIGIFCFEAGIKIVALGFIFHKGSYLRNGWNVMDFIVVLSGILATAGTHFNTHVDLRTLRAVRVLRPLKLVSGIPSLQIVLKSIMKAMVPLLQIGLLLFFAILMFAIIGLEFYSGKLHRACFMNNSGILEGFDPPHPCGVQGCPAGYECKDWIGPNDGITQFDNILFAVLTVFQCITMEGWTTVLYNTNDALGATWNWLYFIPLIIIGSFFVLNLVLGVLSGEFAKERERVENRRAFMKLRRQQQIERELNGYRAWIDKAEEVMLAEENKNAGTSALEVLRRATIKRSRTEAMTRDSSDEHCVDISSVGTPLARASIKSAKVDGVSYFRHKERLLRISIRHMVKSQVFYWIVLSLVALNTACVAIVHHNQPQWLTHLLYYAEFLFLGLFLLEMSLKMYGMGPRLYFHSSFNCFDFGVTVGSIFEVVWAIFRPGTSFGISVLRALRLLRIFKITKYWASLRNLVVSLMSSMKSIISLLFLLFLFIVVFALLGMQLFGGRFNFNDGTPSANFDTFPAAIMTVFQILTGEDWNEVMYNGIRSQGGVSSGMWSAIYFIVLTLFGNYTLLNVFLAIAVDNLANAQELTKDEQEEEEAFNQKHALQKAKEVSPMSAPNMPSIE
Sequence of Cav2.3 (Q15878 1126-2313 limits assumed): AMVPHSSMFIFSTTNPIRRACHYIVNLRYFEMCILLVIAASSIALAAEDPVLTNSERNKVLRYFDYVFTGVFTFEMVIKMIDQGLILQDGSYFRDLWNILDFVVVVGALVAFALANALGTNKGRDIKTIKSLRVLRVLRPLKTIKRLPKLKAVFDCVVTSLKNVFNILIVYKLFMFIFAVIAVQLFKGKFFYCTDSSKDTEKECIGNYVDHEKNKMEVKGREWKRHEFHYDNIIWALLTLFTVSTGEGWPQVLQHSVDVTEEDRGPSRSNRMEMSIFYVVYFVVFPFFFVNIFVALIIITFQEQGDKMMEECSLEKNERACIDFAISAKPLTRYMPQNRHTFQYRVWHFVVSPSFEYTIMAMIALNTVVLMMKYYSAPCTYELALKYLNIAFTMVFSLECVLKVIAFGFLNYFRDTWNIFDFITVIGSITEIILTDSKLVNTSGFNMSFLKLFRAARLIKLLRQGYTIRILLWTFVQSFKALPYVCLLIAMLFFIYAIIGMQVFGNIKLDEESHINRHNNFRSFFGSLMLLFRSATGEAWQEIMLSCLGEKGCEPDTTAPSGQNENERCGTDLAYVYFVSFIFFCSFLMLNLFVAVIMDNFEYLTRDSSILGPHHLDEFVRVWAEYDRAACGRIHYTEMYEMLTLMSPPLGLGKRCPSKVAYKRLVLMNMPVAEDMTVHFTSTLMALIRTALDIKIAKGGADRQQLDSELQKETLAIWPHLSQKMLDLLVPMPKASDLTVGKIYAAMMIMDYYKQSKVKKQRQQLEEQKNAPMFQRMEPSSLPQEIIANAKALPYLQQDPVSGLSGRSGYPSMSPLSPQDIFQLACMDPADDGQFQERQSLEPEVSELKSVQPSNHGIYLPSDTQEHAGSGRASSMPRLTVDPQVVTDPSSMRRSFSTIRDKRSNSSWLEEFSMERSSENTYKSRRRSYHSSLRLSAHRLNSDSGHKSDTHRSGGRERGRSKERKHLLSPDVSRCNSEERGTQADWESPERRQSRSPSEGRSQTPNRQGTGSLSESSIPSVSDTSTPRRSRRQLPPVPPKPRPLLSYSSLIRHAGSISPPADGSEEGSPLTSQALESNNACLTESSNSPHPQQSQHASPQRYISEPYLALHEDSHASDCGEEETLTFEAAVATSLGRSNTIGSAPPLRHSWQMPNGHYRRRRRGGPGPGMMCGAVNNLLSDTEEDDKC

Row | SMILES | IC50
1 | CC1CC2(CCC2)CN1S(=O)(=O)c1cnccn1 (stereo not drawn) [Example 39, 7-methyl-6-(pyrazin-2-ylsulfonyl)-6-azaspiro[3.4]octane] | 10.7 µM
2 | CC1CC2(CCC2)CN1S(=O)(=O)c1ncccn1 (stereo not drawn) [Example 14, 7-Methyl-6-(pyrimidin-2-ylsulfonyl)-6-azaspiro[3.4]octane] | 46.8 µM
3 | CCC1CC2(CCCC2)CN1S(=O)(=O)c1ccc2c(c1)CN(C(=O)C(F)(F)F)CC2 (stereo not drawn) [Example 101, 1-(7-((3-Ethyl-2-azaspiro[4.4]nonan-2-yl)sulfonyl)-3,4-dihydroisoquinolin-2(1H)-yl)-2,2,2-trifluoroethan-1-one] | 2.45 µM
4 | CC1CC2(CCC2)CN1S(=O)(=O)c1cccc2c1OC(F)(F)O2 (stereo not drawn) [Example 41, 6-((2,2-Difluorobenzo[d][1,3]dioxol-4-yl)sulfonyl)-7-methyl-6-azaspiro[3.4]octane] | 8.32 µM
5 | CC1CC2(CCC2)CN1S(=O)(=O)c1cc2oc(=O)[nH]c2cc1Cl (stereo not drawn) [Example 56, 5-Chloro-6-((7-methyl-6-azaspiro[3.4]octan-6-yl)sulfonyl)benzo[d]oxazol-2(3H)-one] | 8.32 µM
6 | CC1CC2(CCC2)CN1S(=O)(=O)Cc1ccccc1 (stereo not drawn) [Example 2, 6-(Benzylsulfonyl)-7-methyl-6-azaspiro[3.4]octane] | 4.27 µM
7 | CC1CC2(CCC2)CN1S(=O)(=O)c1ccccc1 (single isomer, unassigned) [Example 46, 7-Methyl-6-(phenylsulfonyl)-6-azaspiro[3.4]octane] | 7.76 µM
8 | Cc1nc(C)c(S(=O)(=O)N2CC3(CCC3)CC2C)s1 (stereo not drawn) [Example 105, 2,4-Dimethyl-5-((7-methyl-6-azaspiro[3.4]octan-6-yl)sulfonyl)thiazole] | 4.57 µM
9 | Cc1ccc(S(=O)(=O)N2CC3(CCC3)CC2C)s1 (single isomer, unassigned) [Example 78, 7-methyl-6-((5-methylthiophen-2-yl)sulfonyl)-6-azaspiro[3.4]octane] | 3.63 µM
10 | CC(=O)N1CCc2ccc(S(=O)(=O)N3CC4(CCC4)CC3C)cc2C1 (stereo not drawn) [Example 94, 1-(7-((7-Methyl-6-azaspiro[3.4]octan-6-yl)sulfonyl)-3,4-dihydroisoquinolin-2(1H)-yl)ethan-1-one] | 2 µM
11 | CC1CC2(CCC2)CN1S(=O)(=O)c1cc2ccccc2o1 (stereo not drawn) [Example 66, 6-(Benzofuran-2-ylsulfonyl)-7-methyl-6-azaspiro[3.4]octane] | 9.12 µM
12 | CC1CC2(CCC2)CN1S(=O)(=O)c1ccc2c(c1)COC2 (stereo not drawn) [Example 65, 6-((1,3-Dihydroisobenzofuran-5-yl)sulfonyl)-7-methyl-6-azaspiro[3.4]octane] | 3.98 µM
13 | Cc1ccc(S(=O)(=O)N2CC3(CCC3)CC2C)o1 (single isomer, unassigned) [Example 54, 7-Methyl-6-((5-methylfuran-2-yl)sulfonyl)-6-azaspiro[3.4]octane] | 8.13 µM
14 | Cc1ccc(S(=O)(=O)N2CC3(CCC3)CC2C)s1 (single isomer, unassigned) [Example 77, 7-Methyl-6-((5-methylthiophen-2-yl)sulfonyl)-6-azaspiro[3.4]octane] | 13.8 µM
15 | CC1CC2(CCC2)CN1S(=O)(=O)c1ccccc1 (single isomer, unassigned) [Example 47, 7-methyl-6-(phenylsulfonyl)-6-azaspiro[3.4]octane] | 1.58 µM
16 | CC1CC2(CCC2)CN1S(=O)(=O)c1ccc(C#N)s1 (single isomer, unassigned) [Example 10, 5-((7-methyl-6-azaspiro[3.4]octan-6-yl)sulfonyl)thiophene-2-carbonitrile] | 2.69 µM
17 | CC1CC2(CCCC2)CN1S(=O)(=O)c1cccs1 (stereo not drawn) [Example 73, 3-Methyl-2-(thiophen-2-ylsulfonyl)-2-azaspiro[4.4]nonane] | 1.7 µM
18 | CC1CC2(CCC2)CN1S(=O)(=O)c1ccc(C#N)s1 (stereo not drawn) [Example 8, 5-((7-Methyl-6-azaspiro[3.4]octan-6-yl)sulfonyl)thiophene-2-carbonitrile] | 2.57 µM
19 | CC1(C)CC2(CCC2)CN1S(=O)(=O)c1ccsc1 [Example 49, 7,7-Dimethyl-6-(thiophen-3-ylsulfonyl)-6-azaspiro[3.4]octane] | 3.89 µM
20 | CC1CC2(CCC2)CN1S(=O)(=O)c1ccccc1 (stereo not drawn) [Example 45, 7-Methyl-6-(phenylsulfonyl)-6-azaspiro[3.4]octane] | 3.39 µM

Next, values leading:

Row | IC50 | SMILES
21 | 4.57 µM | Cc1ccnc2cc(S(=O)(=O)N3CC4(CCC4)CC3C)ccc12 (single isomer, unassigned) [Example 81, 4-Methyl-7-((7-methyl-6-azaspiro[3.4]octan-6-yl)sulfonyl)quinoline]
22 | 24.5 µM | O=S(=O)(c1cccs1)N1CC2(CCC2)CC1CO (stereo not drawn) [Example 42, (6-(Thiophen-2-ylsulfonyl)-6-azaspiro[3.4]octan-7-yl)methanol]
23 | 1.86 µM | CC1CC2(CCC2)CN1S(=O)(=O)c1ccc2ccoc2c1 (stereo not drawn) [Example 15, 6-(Benzofuran-6-ylsulfonyl)-7-methyl-6-azaspiro[3.4]octane]
24 | 4.79 µM | CC1CC2(CCC2)CN1S(=O)(=O)c1ccc2ccoc2c1 (single isomer, unassigned) [Example 16, 6-(Benzofuran-6-ylsulfonyl)-7-methyl-6-azaspiro[3.4]octane]
25 | 7.94 µM | CC1CC2(CCC2)CN1S(=O)(=O)c1ccco1 (single isomer, unassigned) [Example 37, 6-(Furan-2-ylsulfonyl)-7-methyl-6-azaspiro[3.4]octane]
26 | 2.45 µM | CCC1CC2(CCC2)CN1S(=O)(=O)c1ccnc(C)c1 (stereo not drawn) [Example 92, 7-Ethyl-6-((2-methylpyridin-4-yl)sulfonyl)-6-azaspiro[3.4]octane]
27 | 5.62 µM | CCC1CC2(CCC2)CN1S(=O)(=O)c1ccc2c(c1)S(=O)(=O)CC2 (single isomer, unassigned) [Example 63, 6-((7-ethyl-6-azaspiro[3.4]octan-6-yl)sulfonyl)-2,3-dihydrobenzo[b]thiophene 1,1-dioxide]
28 | 10.2 µM | COCC1CC2(CCC2)CN1S(=O)(=O)c1cccs1 (stereo not drawn) [Example 43, 7-(Methoxymethyl)-6-(thiophen-2-ylsulfonyl)-6-azaspiro[3.4]octane]
29 | 5.25 µM | CC1CC2(CCC2)CN1S(=O)(=O)c1ccco1 (stereo not drawn) [Example 36, 6-(Furan-2-ylsulfonyl)-7-methyl-6-azaspiro[3.4]octane]
30 | 4.9 µM | Cc1ccc(S(=O)(=O)N2CC3(CCC3)CC2C)o1 (stereo not drawn) [Example 53, 7-Methyl-6-((5-methylfuran-2-yl)sulfonyl)-6-azaspiro[3.4]octane]
31 | 1.66 µM | CC1CC2(CCC2)CN1S(=O)(=O)c1ccncc1 (single isomer, unassigned) [Example 13, 7-methyl-6-(pyridin-4-ylsulfonyl)-6-azaspiro[3.4]octane]
32 | 2.51 µM | CCOc1cc(S(=O)(=O)N2CC3(CCC3)CC2C)ccn1 (stereo not drawn) [Example 88, 6-((2-Ethoxypyridin-4-yl)sulfonyl)-7-methyl-6-azaspiro[3.4]octane]
33 | 2.51 µM | CCC1CC2(CCCC2)CN1S(=O)(=O)c1cccs1 (stereo not drawn) [Example 97, 3-Ethyl-2-(thiophen-2-ylsulfonyl)-2-azaspiro[4.4]nonane]
34 | 1.95 µM | CC1CC2(CCC2)CN1S(=O)(=O)c1cncc(C#N)c1 (stereo not drawn) [Example 111, 5-((7-methyl-6-azaspiro[3.4]octan-6-yl)sulfonyl)nicotinonitrile]
35 | 3.8 µM | CCC1CC2(CCC2)CN1S(=O)(=O)c1ccc2ccsc2c1 (stereo not drawn) [Example 35, 6-(Benzo[b]thiophen-6-ylsulfonyl)-7-ethyl-6-azaspiro[3.4]octane]
36 | 3.24 µM | CC1CC2(CCC2)CN1S(=O)(=O)c1ccncc1 (stereo not drawn) [Example 11, 7-Methyl-6-(pyridin-4-ylsulfonyl)-6-azaspiro[3.4]octane]
